Test [1] has as its target T1, von Hippel-Lindau disease tumor suppressor/Leucine-rich repeat serine/threonine-protein kinase 2 (Mus musculus) (UniProt Q5S006+P40338). Nature of the test: PROTAC activity at VHL/wildtype LRRK2 in MEF cells assessed as induction of LRRK2 degradation by measuring maximal efficacy at 300 nM incubated for 48 hrs by Western blot analysis relative to control. The class given is cell-based. For orientation: A western blot detects proteins with antibodies after separation by electrophoresis.

Test [2] has as its target T1, von Hippel-Lindau disease tumor suppressor/Leucine-rich repeat serine/threonine-protein kinase 2 (Mus musculus). Nature of the test: PROTAC activity at VHL/wildtype LRRK2 in MEF cells assessed as induction of LRRK2 degradation by measuring half-life at 300 nM incubated for 48 hrs by Western blot analysis. The class given is cell-based.
For test [3], the target named is T2, Von Hippel-Lindau disease tumor suppressor/Elongin B/Elongin C (Homo sapiens, UniProt P40337). The test can be described thus: Binding affinity to VHL/Elongin C/Elogin B (unknown origin) using FAM-DEALA-Hyp-YIPMDDDFQLRSF as substrate assessed as dissociation constant by fluorescence polarization assay. The class given is protein-complex assay. In general terms: In fluorescence polarisation assays a small probe gives low polarisation when free and higher when bound to something large.

The test system of the next test is HEK293. The test can be described thus: Binding affinity to C-terminal NanoLuc fused human LRRK2/VHL-elongin-B-elongin C (unknown origin) complex expressed in HEK293 cells assessed as ternary complex formation by measuring cooperativity factor by NanoBRET based assay. The class given is cell-based. For orientation: BRET reads energy transfer from a luciferase to a nearby fluorophore.

The target in test [4] is T2, Von Hippel-Lindau disease tumor suppressor/Elongin B/Elongin C. The test can be described thus: Displacement of JC-9 probe from recombinant VHL/Elongin C/Elogin B (unknown origin) using FAM-DEALA-Hyp-YIPMDDDFQLRSF as substrate assessed as dissociation constant by competitive fluorescence polarization assay. The class given is protein-complex assay.
Test [5] has as its target T3, Von Hippel-Lindau disease tumor suppressor/Elongin B/Elongin C (Homo sapiens) (UniProt P40337+Q15370+Q15369). The test can be described thus: Binding affinity to VHL/Elongin C/Elogin B (unknown origin) assessed as change in entropy at 20 uM by ITC analysis. The class given is protein-complex assay.
In test [6] the target is T3, Von Hippel-Lindau disease tumor suppressor/Elongin B/Elongin C (Homo sapiens). The test can be described thus: Binding affinity to VHL/Elongin C/Elogin B (unknown origin) assessed as change in enthalpy at 20 uM by ITC analysis. The class given is protein-complex assay.
Test [7] deals with T2, Von Hippel-Lindau disease tumor suppressor/Elongin B/Elongin C. Nature of the test: Binding affinity to VHL/Elongin C/Elogin B (unknown origin) assessed as dissociation constant at 20 uM by ITC analysis. The class given is protein-complex assay.
For test [8], the target named is T3, Von Hippel-Lindau disease tumor suppressor/Elongin B/Elongin C (Homo sapiens). The test can be described thus: Binding affinity to VHL/Elongin C/Elogin B (unknown origin) assessed as change in gibbs free energy at 20 uM by ITC analysis. The class given is protein-complex assay.
For test [9], the target named is Protein cereblon/Leucine-rich repeat serine/threonine-protein kinase 2 (Homo sapiens, UniProt Q5S007+Q96SW2). The test can be described thus: PROTAC activity at CRBN/LRRK2 (unknown origin). The class given is protein assay.

SMILES strings stand for the structures. Where only a bound is given, the exact number is not on record here.

T2 sequence (P40337 whole entry, looked up): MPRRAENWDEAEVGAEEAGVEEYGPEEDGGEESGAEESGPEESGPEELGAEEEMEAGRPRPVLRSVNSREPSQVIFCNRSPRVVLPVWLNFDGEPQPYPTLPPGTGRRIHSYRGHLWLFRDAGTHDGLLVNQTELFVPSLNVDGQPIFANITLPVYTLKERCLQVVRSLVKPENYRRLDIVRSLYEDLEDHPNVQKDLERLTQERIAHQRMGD
T3 sequence (P40337 whole entry, looked up): as above
T3 sequence (Q15369 whole entry, looked up): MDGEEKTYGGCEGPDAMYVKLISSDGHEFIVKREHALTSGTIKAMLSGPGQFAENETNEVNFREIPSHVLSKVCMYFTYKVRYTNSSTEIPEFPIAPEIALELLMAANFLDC
T3 sequence (Q15370 whole entry, looked up): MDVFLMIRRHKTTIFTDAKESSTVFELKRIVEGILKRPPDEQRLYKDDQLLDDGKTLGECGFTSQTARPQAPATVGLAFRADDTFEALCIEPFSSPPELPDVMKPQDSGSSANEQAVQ
T1 sequence (P40338 whole entry, looked up): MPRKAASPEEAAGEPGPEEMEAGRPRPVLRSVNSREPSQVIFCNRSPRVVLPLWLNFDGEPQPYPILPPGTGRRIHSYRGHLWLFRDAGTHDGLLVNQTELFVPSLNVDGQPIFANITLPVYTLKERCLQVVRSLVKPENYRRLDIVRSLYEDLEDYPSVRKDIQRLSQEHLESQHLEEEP
T1 sequence (Q5S006 whole entry, looked up): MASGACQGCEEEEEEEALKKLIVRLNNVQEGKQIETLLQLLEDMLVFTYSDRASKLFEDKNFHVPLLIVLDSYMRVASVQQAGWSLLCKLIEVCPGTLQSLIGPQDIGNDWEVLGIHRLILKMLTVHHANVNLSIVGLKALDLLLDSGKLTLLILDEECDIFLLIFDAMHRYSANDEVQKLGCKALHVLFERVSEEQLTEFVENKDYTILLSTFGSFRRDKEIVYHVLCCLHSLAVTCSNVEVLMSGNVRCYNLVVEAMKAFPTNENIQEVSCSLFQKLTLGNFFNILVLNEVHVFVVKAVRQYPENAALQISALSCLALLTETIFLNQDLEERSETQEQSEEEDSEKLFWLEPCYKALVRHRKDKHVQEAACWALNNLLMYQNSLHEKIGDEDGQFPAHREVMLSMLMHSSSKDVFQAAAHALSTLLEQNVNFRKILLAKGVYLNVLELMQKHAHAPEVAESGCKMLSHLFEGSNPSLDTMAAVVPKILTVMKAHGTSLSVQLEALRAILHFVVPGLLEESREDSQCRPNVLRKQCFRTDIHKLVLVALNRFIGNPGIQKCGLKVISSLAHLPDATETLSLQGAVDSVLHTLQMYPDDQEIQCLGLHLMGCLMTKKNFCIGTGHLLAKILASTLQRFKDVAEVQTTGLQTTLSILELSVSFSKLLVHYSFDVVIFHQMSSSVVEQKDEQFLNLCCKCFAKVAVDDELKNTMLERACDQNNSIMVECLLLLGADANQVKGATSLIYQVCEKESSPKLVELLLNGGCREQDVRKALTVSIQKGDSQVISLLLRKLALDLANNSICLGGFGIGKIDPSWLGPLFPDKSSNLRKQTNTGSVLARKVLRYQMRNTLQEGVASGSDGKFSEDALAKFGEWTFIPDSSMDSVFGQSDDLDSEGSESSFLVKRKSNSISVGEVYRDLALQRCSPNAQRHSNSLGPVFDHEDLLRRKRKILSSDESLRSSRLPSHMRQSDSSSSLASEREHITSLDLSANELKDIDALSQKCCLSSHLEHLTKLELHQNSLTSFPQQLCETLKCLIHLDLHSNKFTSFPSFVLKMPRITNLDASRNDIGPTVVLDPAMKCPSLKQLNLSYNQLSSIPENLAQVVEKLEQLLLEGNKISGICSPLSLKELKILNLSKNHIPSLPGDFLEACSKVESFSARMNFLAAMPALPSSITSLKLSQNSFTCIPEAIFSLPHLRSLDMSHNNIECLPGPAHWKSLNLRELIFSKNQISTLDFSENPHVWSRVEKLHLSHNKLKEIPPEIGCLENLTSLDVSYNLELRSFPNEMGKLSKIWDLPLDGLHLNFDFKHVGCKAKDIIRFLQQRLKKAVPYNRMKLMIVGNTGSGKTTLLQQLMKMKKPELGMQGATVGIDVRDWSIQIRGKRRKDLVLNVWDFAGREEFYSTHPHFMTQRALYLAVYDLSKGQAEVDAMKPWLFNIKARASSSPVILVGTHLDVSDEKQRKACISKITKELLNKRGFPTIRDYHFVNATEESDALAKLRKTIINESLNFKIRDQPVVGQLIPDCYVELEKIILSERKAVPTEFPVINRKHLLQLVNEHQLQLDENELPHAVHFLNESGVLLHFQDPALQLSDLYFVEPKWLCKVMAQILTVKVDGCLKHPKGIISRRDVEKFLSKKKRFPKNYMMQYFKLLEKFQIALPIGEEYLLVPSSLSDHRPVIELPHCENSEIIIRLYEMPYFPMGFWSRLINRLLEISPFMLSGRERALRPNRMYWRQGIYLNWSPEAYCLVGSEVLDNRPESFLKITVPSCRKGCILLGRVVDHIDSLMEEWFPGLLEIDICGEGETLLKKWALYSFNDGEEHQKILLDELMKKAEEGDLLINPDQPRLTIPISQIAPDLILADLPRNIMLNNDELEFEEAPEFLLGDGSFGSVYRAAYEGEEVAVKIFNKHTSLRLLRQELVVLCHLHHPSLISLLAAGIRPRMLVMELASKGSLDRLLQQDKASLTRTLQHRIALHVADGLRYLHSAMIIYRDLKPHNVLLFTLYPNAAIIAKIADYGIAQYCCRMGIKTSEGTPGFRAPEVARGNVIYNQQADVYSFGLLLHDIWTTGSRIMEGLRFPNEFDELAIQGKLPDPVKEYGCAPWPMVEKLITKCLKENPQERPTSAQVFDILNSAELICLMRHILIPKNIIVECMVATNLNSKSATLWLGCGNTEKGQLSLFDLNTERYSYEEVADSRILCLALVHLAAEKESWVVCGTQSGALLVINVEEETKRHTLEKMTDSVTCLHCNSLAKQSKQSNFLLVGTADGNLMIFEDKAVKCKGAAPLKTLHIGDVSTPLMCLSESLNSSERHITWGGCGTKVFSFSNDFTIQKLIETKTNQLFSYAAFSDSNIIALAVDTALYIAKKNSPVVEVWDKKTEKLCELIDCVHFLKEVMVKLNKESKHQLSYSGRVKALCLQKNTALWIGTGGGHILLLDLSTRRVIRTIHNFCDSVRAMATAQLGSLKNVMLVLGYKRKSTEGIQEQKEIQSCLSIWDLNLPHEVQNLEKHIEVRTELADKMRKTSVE

Usually Emax stands for the size of the effect at its maximum, as opposed to the concentration needed. A word on the Kd: it is the equilibrium constant for the complex coming apart. Regarding `CNc1nc(Nc2ccc(C(=O)N3CCN(C[C@H]4CC[C@H](CSC(C)(C)[C@H](NC(=O)C5(F)CC5)C(=O)N5C[C@H](O)C[C@H]5C(=O)NCc5ccc(-c6scnc6C)cc5)CC4)CC3)cc2OC)ncc1Cl`, in [1], the maximal effect (Emax) turned out to be 82%. The T1/2 in test [2] came to 1.2 h. In addition, the Kd in [3] was greater than 2330 nM; in [4], greater than 820 nM. In addition, the Activity in the test on HEK293 was found to be 5.7.
With `Cc1ncsc1-c1ccc(CNC(=O)[C@@H]2C[C@@H](O)CN2C(=O)[C@@H](NC(=O)C2(F)CC2)C(C)(C)SC[C@H]2CC[C@H](CN(C)C)CC2)cc1`, in [4], the dissociation constant (Kd) stood at 514 nM.
In the case of `Cc1ncsc1-c1ccc(CNC(=O)[C@@H]2C[C@@H](O)CN2C(=O)[C@@H](NC(=O)C2(F)CC2)C(C)(C)SC[C@H]2CC[C@@H](CN3CCOCC3)CC2)cc1`, in test [5], the TdeltaS was -1.31 kcal/mol. In addition, the deltaH in test [6] is -7.96 kcal/mol. Further, the values for the dissociation constant Kd in test [7] and in test [4] were 165 nM and 354 nM, respectively. Also, the deltaG in [8] was -9.25 kcal/mol.
Regarding `CSC(C)(C)[C@H](NC(=O)C1(F)CC1)C(=O)N1C[C@H](O)C[C@H]1C(=O)NCc1ccc(-c2scnc2C)cc1`, in test [4], the dissociation constant (Kd) came to 406 nM.
On to `Cc1ncsc1-c1ccc(CNC(=O)[C@@H]2C[C@@H](O)CN2C(=O)[C@@H](NC(=O)C2(F)CC2)C(C)(C)SC[C@H]2CC[C@H](CN3CCOCC3)CC2)cc1`, for which, in test [5], the TdeltaS is -1.77 kcal/mol. Moreover, the deltaH in test [6] was -6.98 kcal/mol. Also, the Kd in [7] came to 396 nM; in test [4] it was 540 nM. Further, the deltaG in test [8] was -8.75 kcal/mol.
As for `Cc1ncsc1-c1ccc(CNC(=O)[C@@H]2C[C@@H](O)CN2C(=O)[C@@H](NC(=O)C2(F)CC2)C(C)(C)SC[C@H]2CC[C@@H](CN(C)C)CC2)cc1`, the Kd in test [4] was determined as 313 nM.
Regarding `COc1ccc(C(=O)N2CCN(C[C@H]3CC[C@@H](CSC(C)(C)[C@H](NC(=O)C4(F)CC4)C(=O)N4C[C@H](O)C[C@H]4C(=O)NCc4ccc(-c5scnc5C)cc4)CC3)CC2)cc1`, the Kd in test [4] is 260 nM.
As to `CNc1nc(Nc2ccc(C(=O)N3CCN(C[C@H]4CC[C@@H](CSC(C)(C)[C@H](NC(=O)C5(F)CC5)C(=O)N5C[C@H](O)C[C@H]5C(=O)NCc5ccc(-c6scnc6C)cc5)CC4)CC3)cc2OC)ncc1Cl`, the Emax in test [1] was found to be 59%. The T1/2 in test [2] is 2.7 h. Besides, the dissociation constant (Kd) turned out to be 160 nM in [3] and 326 nM in test [4]. The Activity in the test with HEK293 is 1.4.
Turning to `COc1ccc(C(=O)N2CCN(C[C@H]3CC[C@H](CSC(C)(C)[C@H](NC(=O)C4(F)CC4)C(=O)N4C[C@H](O)C[C@H]4C(=O)NCc4ccc(-c5scnc5C)cc4)CC3)CC2)cc1`, the equilibrium dissociation constant (Kd) in test [4] worked out at 585 nM.
Consider `CC1(Oc2ccc3[nH]nc(-c4cc(N5CCN(C[C@H]6CC[C@@H](CN7CCN(c8ccc9c(c8F)CN(C8CCC(=O)NC8=O)C9=O)CC7)CC6)CC5)ncn4)c3c2)CC1` (stereo partly specified), for which the DC50 in test [9] was less than 10 nM.
